Among the data in ChEMBL document CHEMBL3864171, “Pyridyl Isonicotinamide Inhibitors of RAF Kinase” (ACS Med Chem Lett, 2016) are IC50 values, retold here.

Each structure is given as a SMILES string.

In this test the target is RAF proto-oncogene serine/threonine-protein kinase (Homo sapiens, UniProt P04049). The experiment in a line: Inhibition of 1 to 324 residues truncated c-Raf (unknown origin) expressed in baculovirus infected Sf9 insect cells using full length biotinylated MEK1 ATP binding site K97R mutant as substrate preincubated for 60 mins followed by ATP addition measured after 1 hr by alpha screen assay. A general note: Bead proximity is the source of the signal in Alpha formats.
Chain of RAF proto-oncogene serine/threonine-protein kinase (P04049 whole entry, the tested form may be a part): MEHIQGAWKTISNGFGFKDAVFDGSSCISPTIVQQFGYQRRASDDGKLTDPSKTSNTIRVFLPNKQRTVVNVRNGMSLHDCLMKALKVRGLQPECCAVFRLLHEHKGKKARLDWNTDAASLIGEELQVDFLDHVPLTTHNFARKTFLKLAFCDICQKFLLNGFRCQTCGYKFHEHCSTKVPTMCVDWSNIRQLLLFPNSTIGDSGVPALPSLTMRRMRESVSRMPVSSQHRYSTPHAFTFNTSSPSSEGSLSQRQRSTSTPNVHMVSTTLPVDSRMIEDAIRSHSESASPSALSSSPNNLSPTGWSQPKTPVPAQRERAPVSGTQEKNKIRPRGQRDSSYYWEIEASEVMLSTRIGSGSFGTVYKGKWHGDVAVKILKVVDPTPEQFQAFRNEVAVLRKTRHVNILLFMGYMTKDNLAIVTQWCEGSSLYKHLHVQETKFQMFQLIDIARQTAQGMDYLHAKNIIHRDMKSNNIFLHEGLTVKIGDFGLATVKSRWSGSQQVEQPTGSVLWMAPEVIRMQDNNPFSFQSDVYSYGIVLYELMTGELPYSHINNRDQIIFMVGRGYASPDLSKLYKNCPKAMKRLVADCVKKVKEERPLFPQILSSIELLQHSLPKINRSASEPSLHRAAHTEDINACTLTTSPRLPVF
By IC50 is commonly meant the concentration needed to halve the response being measured. In turn, `Cc1ccc(NC(=O)c2ccnc(C(C)(F)F)c2)cc1-c1cc(OCCOP(=O)(O)O)nc(N2CCOC[C@H]2C)c1` registered an IC50 of 100 pM.

As to `Cc1ccc(NC(=O)c2ccnc(C(F)(F)F)c2)cc1-c1cc(OCCOP(=O)(O)O)nc(N2CCOCC2)c1`, the IC50 amounted to 100 pM.

The compound `Cc1ccc(NC(=O)c2cc(C(F)(F)F)ccn2)cc1-c1cc(OCC(O)CP(=O)(O)O)nc(N2CCOCC2)c1` (stereo unspecified) displayed an IC50 of 24 pM.

Consider `Cc1ccc(NC(=O)c2cccc(C(F)(F)F)c2)cc1-c1cc(OCCOP(=O)(O)O)nc(N2CCOC[C@H]2C)c1`, for which the IC50 was determined as 6000 pM.

In turn, `Cc1ccc(NC(=O)c2ccnc(C(F)(F)F)c2)cc1-c1cnc(OCCOP(=O)(O)O)c(N2CCOCC2)c1` had an IC50 of 30 pM.

`Cc1ccc(NC(=O)c2ccnc(C(F)(F)F)c2)cc1-c1cc(OCCOP(=O)(O)O)nc(N2CCOC[C@H]2C)c1`: the half-inhibitory concentration (IC50) was 2000 pM.
